Test results: patent US11833137B2, “Substituted chromenones, IRE1 inhibitors, and methods of using same” (The Wistar Institute, priority 2018, dated 2023)
Entries after “also recorded” stand apart in the source; their conditions may differ. Values belong to the molecule of their own block, whether it stands above or below them.

Experiments:
5TGM1 cells = test: Cell proliferation XTT assay, 5TGM1; assay type: cell-based, mouse
Experimental: 5TGM1 cells were suspended in phenol red-free RPMI media, seeded in 96-well cell culture plates, and treated with indicated IRE1 inhibitors (20 μM, unless indicated otherwise). At indicated time points, cells were spun down and cell proliferation was assessed by XTT assays (Roche) according to the manufacturer's instructions. Briefly, 50 μl XTT labeling reagent, 1 μl electron-coupling reagent, and 100 μl phenol red-free RPMI media were combined and applied to each well of the 96-well plates. Cells were incubated for 4 h in a CO2 incubator to allow for the yellow tetrazolium salt XTT to be cleaved by mitochondrial dehydrogenases of metabolically active cells to form the orange formazan dye, which can be quantified at 492 nm using a BioTek SYNERGY™ NEO2 Multimode Reader.

[1] = test system: XBP-1s expression, 5TGM1 cells; test: XBP-1s immunoblot in 5TGM1 multiple myeloma cells; assay type: cell-based, mouse; conditions: for suppression of XBP-1s expression, long term: 10 μM for a course of 3 days; for inhibition of XBP-1s expression, short term: 2.5 μM for 1, 2 or 4 h
Experimental: 5TGM1 mouse multiple myeloma cells, primary mouse B cells, primary mouse Eμ-TCL1 CLL cells, and human CLL cell lines (MEC2 and WaC3) were cultured at 37° C. in a 5% CO2 incubator using RPMI 1640 media (Gibco) supplemented with 10% heat-inactivated FBS, 2 mM L-glutamine, 100 U/mL penicillin G sodium, 1 mM sodium pyruvate, 0.1 mM non-essential amino acids, 100 μg/mL streptomycin sulfate and 0.1 mM β-mercaptoethanol (β-ME).
(§1) Cells were lysed using RIPA buffer (10 mM Tris-HCl, pH 7.4, 150 mM NaCl, 1% NP-40, 0.5% sodium deoxycholate, 0.1% SDS, and 1 mM EDTA) supplemented with protease inhibitors (Roche). Protein concentrations were determined by BCA assays (Pierce).
(§2) Samples were boiled in SDS-PAGE sample buffer (62.5 mM Tris-HCl, pH 6.8, 2% SDS, 10% glycerol, 0.1% bromophenol blue) with β-ME and analyzed by SDS-PAGE. Proteins were transferred to nitrocellulose membranes, blocked in 5% nonfat milk (wt/vol in PBS), and immunoblotted with indicated primary antibodies and appropriate horseradish peroxidase-conjugated secondary antibodies. Immunoblots were developed using Western Lighting Chemiluminescence Reagent (PerkinElmer).
To develop inhibitors with improved potency to target the IRE1/XBP-1 pathway, tricyclic chromenone-based IRE1 RNase inhibitors with different amine group (R^1) were synthesized and compared: allyloxycarbonyl (alloc) in B-H09 (1), —H in C-B06 (2), and —CH3 in C-D06 (3) (FIG. 1A). 5TGM1 multiple myeloma cells were chosen to evaluate inhibitory effects of these inhibitors because they have constitutively activated IRE1/XBP-1 pathways.

[2] = Compound degradation HPLC assay; assay type: physicochemical; conditions: 37° C.
Experimental: A 20 mM DMSO stock solution of analyte compounds (7, 8, D-F07, PC-D-F07 and TC-D-F07) were diluted to 400 μM with PBS, pH 7.4, or to 800 μM with RMPI plus 10% FBS culture media (experiments with TC-D-F07 were performed using RPMI without FBS). After incubation at 37° C., aliquots at various time points were injected onto an analytical HPLC instrument and the peaks integrated (UV monitored at 220 nm). Intact compound relative to t=0 was plotted as a function of time.

WaC3 cells = test: Cell proliferation XTT assay, WaC3; assay type: cell-based, human; conditions: 20 μM for a course of 3 days
MEC2 cells = test: Cell proliferation XTT assay, MEC2; assay type: cell-based, human; conditions: indicated concentrations, 24 h
[3] = Fluorescence stability (decomposition) in aqueous solution; assay type: physicochemical; conditions: 37° C.
Experimental: (FIG. 2B) 5TGM1 cells were treated with DMSO or with 20 μM 2, 4, 3, or 7 dissolved in DMSO for 3 days and subjected to XTT assays. Percentages of growth were determined by comparing treated groups with control groups (DMSO). Each data point derived from four independent groups receiving exactly the same treatment was plotted as mean±SD. Results are representative of three independent experiments. […] The values of I/I0 were plotted as a function of time and shown in the inset. I0 was the initial fluorescence intensity of 4 at 0 h. […] The values of I/I0 were plotted as a function of time and shown in the inset. I0 was the initial fluorescence intensity of 5 at 0 h. […] (FIG. 2G) The decomposition rates of 7 and 8 were plotted as a function of time in RPMI media incubated at 37° C. Aliquots were analyzed by HPLC and the peaks integrated.
FIGS. 5A-5J illustrate the finding that installation of a boronate cage cleavable by H2O2 stabilizes the 1,3-dioxane acetal protective group of D-F07 to allow for temporal inhibition of XBP-1s upon contact with H2O2. (FIG. 5A) A scheme showing that installation of a boronate-caged group stabilizes the 1,3-dioxane acetal protective group to allow for H2O2-mediated release of intact D-F07. (FIG. 5B) The fluorescence of BC-D-F07a (2.5 μM in the DMSO/PBS solution (v/v=1:99), Ex=360 nm) increases upon incubation with 0 to 200 μM hydrogen peroxide at room temperature for 1 h. (FIG. 5C) The fluorescence of BC-D-F07b (2.5 μM in the DMSO/PBS solution (v/v=1:99), Ex=360 nm) increases upon incubation with 0 to 2 mM hydrogen peroxide at 37° C. for 1 h. […] I0 was the initial fluorescence intensity of D-F07, BC-D-F07a or BC-D-F07b at 0 h. (FIG. 5E) The levels of hydrogen peroxide produced by 5TGM1, 72-h LPS-stimulated primary CLL, MEC2, and WaC3 cells were measured by Amplex Red with or without the addition of extracellular catalase (500 U/mL). (FIG. 5F) 5TGM1 cells were treated with BC-D-F07a at increasing concentrations for 24 h, lysed, and analyzed for the expression of indicated proteins by immunoblots. (FIG. 5G) CD5+ CLL cells purified from spleens of Eμ-TCL1 mice were stimulated with […], subsequently treated with BC-D-F07a at 20 μM for 16 h, and then incubated with hydrogen peroxide at indicated concentrations for another 4 h. Cells were lysed and analyzed for the expression of indicated proteins by immunoblots. […] Cells were lysed and analyzed for the expression of indicated proteins by immunoblots. […] Percentages of growth were determined by comparing treated groups with control groups (DMSO). […]
UV-vis and fluorescence spectra were carried out on a BioTek SYNERGY™ NEO2 instrument (96 well plate).

[4] = test system: XBP-1s expression, LPS-stimulated primary mouse B cells; test: XBP-1s immunoblot in LPS-stimulated primary B cells; assay type: cell-based; conditions: 2.5 or 5 μM for 2 h
Experimental: FIG. 8 illustrates chemical structures of 6, 4, 7, 8, and 9. Primary B cells purified from spleens of wild-type mice were stimulated with LPS for 72 h, subsequently treated with indicated inhibitors at 2.5 or 5 μM for 2 h, lysed, and analyzed for the expression of indicated proteins by immunoblots.
as §1, §2
LPS-stimulated primary mouse B cells were similarly treated with the same inhibitors at 2.5 or 5 μM for 2 h. […] HPLC degradation experiments confirmed that this was indeed the case (FIG. 2G).

SMILES: CN1CCc2c(c(=O)oc3c(C4OCCCO4)c(O)ccc23)C1 [Compound 7, 7-(1,3-dioxan-2-yl)-8-hydroxy-3-methyl-1,2,3,4-tetrahydro-5H-chromeno[3,4-c]pyridin-5-one]
- growth inhibition / cytotoxicity (XTT) (5TGM1 cells; 20 μM for a course of 3 days): more potent than their respective aldehyde counterparts
- suppression of XBP-1s expression, long term [1]: continuously suppressed even after 3-day treatment; also recorded: more effective than 8 in suppressing the expression of XBP-1s for a longer term
- concentration that effectively blocks XBP-1s expression ([1]; 24 h): 10 µM

SMILES: COc1cc2c3c(c(=O)oc2c(C2OCCCO2)c1OC(C)c1ccc(C(=O)OCC[Si](C)(C)C)cc1[N+](=O)[O-])CN(C)CC3 [PC-D-F07, 2-(trimethylsilyl)ethyl 4-(1-((7-(1,3-dioxan-2-yl)-9-methoxy-3-methyl-5-oxo-1,3,4,5-tetrahydro-2H-chromeno[3,4-c]pyridin-8-yl)oxy)ethyl)-3-nitrobenzoate]
- stability (HPLC) ([2]; PBS, 48 h): completely stable
- stability (HPLC) ([2]; RPMI media, 96 h): completely stable
- suppression of XBP-1s after removal of compound from media ([1]; 10 μM 4 h, washed, UV 10 min, 8 h culture): suppression of XBP-1s expression

SMILES: COc1cc2c3c(c(=O)oc2c(/C=N/NC(C)=O)c1O)CN(C)CC3 [Compound 10, (E)-N′-((8-hydroxy-9-methoxy-3-methyl-5-oxo-1,3,4,5-tetrahydro-2H-chromeno[3,4-c]pyridin-7-yl)methylene)acetohydrazide]
- growth suppression (XTT) (WaC3 cells): initially more potent than 7 and 8 in suppressing WaC3 cell growth; also recorded: incapable of continuously inhibiting the growth of WaC3 cells
- inhibition of XBP-1s expression, short term [1]: suppressed the expression of XBP-1s more rapidly than 8
- suppression of XBP-1s expression, long term [1]: exhibited a long-term inhibitory effect; also recorded: slightly recovered in cells treated with 10 for 3 days

SMILES: N[C@@H](CSc1ccc([N+](=O)[O-])cc1[N+](=O)[O-])C(=O)O [Compound 12, (S-2,4-Dinitrophenyl)cysteine]
- expression of XBP-1s (ER stress induction) ([1]; 10 μM, 0 to 24 h): time-dependent increased expression of XBP-1s
- cytotoxicity / growth inhibition (XTT) (MEC2 cells): not cytotoxic to MEC2 cells

SMILES: COc1cc2c3c(c(=O)oc2c(C2OCCCO2)c1OS(=O)(=O)c1ccc([N+](=O)[O-])cc1[N+](=O)[O-])CN(C)CC3 [TC-D-F07, 7-(1,3-dioxan-2-yl)-9-methoxy-3-methyl-5-oxo-1,3,4,5-tetrahydro-2H-chromeno[3,4-c]pyridin-8-yl 2,4-dinitrobenzenesulfonate]
- intact compound ([2]; 4-h incubation in both PBS and RPMI media): 90%
- decomposition rate (HPLC) versus D-F07 ([2]; PBS): slower decomposition rate
- cytotoxicity (XTT) (5TGM1 cells; 0, 2.5, 5, 10 or 20 μM, 24 h): more cytotoxic than D-F07
- suppression of XBP-1s expression ([1]; 2.5 μM, 3 h): significantly suppress the expression of XBP-1s
- levels of XBP-1s, time course ([1]; 2.5 μM, 12 h): the levels of XBP-1s began to recover
- levels of XBP-1s, time course ([1]; 10 μM, 0 to 12 h): initially increased after 3-h treatment and subsequently decreased in response to continuous 12-h treatment
- levels of XBP-1s ([1]; 10 and 20 μM, 3 h): levels of XBP-1s increased
- cytotoxicity / growth inhibition (XTT) (MEC2 cells): potently inhibited the growth of these cells

- fluorescence intensity remaining (decomposition) ([3]; PBS with 1% DMSO, 48 h, from 100%): approximately 60%
SMILES: CC1(C)COC(c2c(O)ccc3c4c(c(=O)oc23)CNCC4)OC1 [Compound 5, 7-(5,5-dimethyl-1,3-dioxan-2-yl)-8-hydroxy-3,4-dihydro-1H-chromeno[3,4-c]pyridin-5(2H)-one]

SMILES: CN1CCc2c(c(=O)oc3c(C=O)c(O)ccc23)C1 [Compound 3]
- inhibition of XBP-1s expression, short term [1]: began to lose its inhibitory effect within 4 h
- inhibition of XBP-1s expression ([1]; 10 μM for 0, 3, 6, 12 or 24 h): rapidly inhibited the expression of XBP-1s; also recorded: much better long-term inhibitory activities than 1
- suppression of XBP-1s expression, long term [1]: recovered significantly in cells treated for 2 days
- overall comparison of inhibition of IRE-1 / XBP-1s expression in whole cells ([1]; summary statement): most efficient aldehyde compounds in inhibiting IRE-1 in intact cells

- hydrolysis rate (HPLC degradation) ([2]; RPMI media): faster hydrolysis relative to 7
SMILES: CC(=O)N/N=C/c1c(O)ccc2c3c(c(=O)oc12)CN(C)CC3 [Compound 8, (E)-N′-((8-hydroxy-3-methyl-5-oxo-1,3,4,5-tetrahydro-2H-chromeno[3,4-c]pyridin-7-yl)methylene)acetohydrazide]
- suppression of XBP-1s expression [4]: rapidly suppressed the expression of XBP-1s
- inhibition of XBP-1s expression, short term [1]: rapidly inhibited XBP-1s; also recorded: effectively inhibit the expression of XBP-1s for longer than 4 h; also recorded: inhibited the expression of XBP-1s more rapidly than 7
- suppression of XBP-1s expression, long term [1]: lost its inhibitory effect after treatment for 2 days

SMILES: COc1cc2c3c(c(=O)oc2c(C2OCCCO2)c1B1OC(C)(C)C(C)(C)O1)CN(C)CC3 [BC-D-F07b, 7-(1,3-dioxan-2-yl)-9-methoxy-3-methyl-8-(4,4,5,5-tetramethyl-1,3,2-dioxaborolan-2-yl)-3,4-dihydro-1H-chromeno[3,4-c]pyridin-5(2H)-one]
- hydrolysis of 1,3-dioxane acetal by fluorescence decay ([3]; aqueous solution, 0 to 48 h, versus D-F07): stabilized the 1,3-dioxane acetal protecting group
